What was measured:
[1] = target: Voltage-gated inwardly rectifying potassium channel KCNH2 (Homo sapiens, UniProt Q12809); details: hek293; further: in other assays of this panel Not Active means under 50% inhibition at 10 µM
Vasopressin V1a receptor = Vasopressin V1a receptor (Homo sapiens, UniProt P37288); assay type: cell membranes, Membrane; details: hek293; further: in other assays of this panel Not Active means under 50% inhibition at 10 µM
[2] = target: Sigma non-opioid intracellular receptor 1 (Homo sapiens, UniProt Q99720); assay: DRUGMATRIX: Sigma1 radioligand binding (ligand: [3H] Haloperidol); assay type: cell membranes, Jurkat, Membrane; details: Not Active = under 50% inhibition at 10 µM
[3] = DRUGMATRIX: Glutamate, NMDA, Agonism radioligand binding (ligand: [3H] CGP-39653); assay type: cell membranes, Rattus norvegicus, Wistar, Cerebral cortex, Membrane; details: Not Active = under 50% inhibition at 10 µM
Progesterone receptor = target: T1, Progesterone receptor (Bos taurus, UniProt Q690N0); assay: DRUGMATRIX: Progesterone radioligand binding (ligand: [3H] R-5020); assay type: tissue-based, Uterus; details: Not Active = under 50% inhibition at 10 µM
T1 sequence (Q690N0 whole entry): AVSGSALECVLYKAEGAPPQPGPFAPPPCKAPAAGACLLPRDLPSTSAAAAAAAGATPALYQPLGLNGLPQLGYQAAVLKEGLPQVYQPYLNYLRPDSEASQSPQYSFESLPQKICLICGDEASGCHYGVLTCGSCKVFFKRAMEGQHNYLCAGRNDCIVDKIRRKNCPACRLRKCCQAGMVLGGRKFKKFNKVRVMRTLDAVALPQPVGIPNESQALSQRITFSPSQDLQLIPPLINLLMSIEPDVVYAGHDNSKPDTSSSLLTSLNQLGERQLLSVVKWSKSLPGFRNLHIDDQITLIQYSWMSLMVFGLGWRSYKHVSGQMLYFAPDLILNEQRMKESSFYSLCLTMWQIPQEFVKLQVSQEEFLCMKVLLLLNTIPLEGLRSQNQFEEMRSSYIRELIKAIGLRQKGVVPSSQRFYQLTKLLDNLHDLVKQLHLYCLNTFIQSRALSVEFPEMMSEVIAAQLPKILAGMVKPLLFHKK

[4] = target: T2, C-X-C chemokine receptor type 1 (Homo sapiens, UniProt P25024); further: in other assays of this panel Not Active means under 50% inhibition at 10 µM
T2 sequence (P25024 whole entry): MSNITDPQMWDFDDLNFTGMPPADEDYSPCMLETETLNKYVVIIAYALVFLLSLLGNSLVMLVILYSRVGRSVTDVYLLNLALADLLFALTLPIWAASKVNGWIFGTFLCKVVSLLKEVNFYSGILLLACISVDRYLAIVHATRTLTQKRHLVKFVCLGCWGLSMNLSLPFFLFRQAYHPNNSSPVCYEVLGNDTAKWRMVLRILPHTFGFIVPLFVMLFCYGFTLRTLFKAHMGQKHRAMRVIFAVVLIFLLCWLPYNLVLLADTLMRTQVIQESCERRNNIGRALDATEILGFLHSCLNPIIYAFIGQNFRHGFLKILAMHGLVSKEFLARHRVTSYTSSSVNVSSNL

[5] = target: T3, Neuropeptide Y receptor type 2 (Homo sapiens, UniProt P49146); assay type: cell membranes, Membrane; details: kan-ts; further: in other assays of this panel Not Active means under 50% inhibition at 10 µM
T3 sequence (P49146 whole entry): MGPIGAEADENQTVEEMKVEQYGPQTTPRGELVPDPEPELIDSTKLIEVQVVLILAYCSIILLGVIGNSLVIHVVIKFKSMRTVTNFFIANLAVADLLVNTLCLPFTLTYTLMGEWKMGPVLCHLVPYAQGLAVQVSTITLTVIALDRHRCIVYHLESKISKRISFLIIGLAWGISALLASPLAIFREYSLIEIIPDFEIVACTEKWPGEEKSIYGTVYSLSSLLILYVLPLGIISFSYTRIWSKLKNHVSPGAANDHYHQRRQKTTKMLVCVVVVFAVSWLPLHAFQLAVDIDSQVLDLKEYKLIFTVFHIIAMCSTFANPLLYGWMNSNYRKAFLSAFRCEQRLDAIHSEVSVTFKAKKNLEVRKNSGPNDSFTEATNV

Cytochrome P450 2C9 = Cytochrome P450 2C9 (Homo sapiens, UniProt P11712); details: bti-tn-5b1-4; further: in other assays of this panel Not Active means under 50% inhibition at 10 µM
Chain of Cytochrome P450 2C9 (P11712 whole entry): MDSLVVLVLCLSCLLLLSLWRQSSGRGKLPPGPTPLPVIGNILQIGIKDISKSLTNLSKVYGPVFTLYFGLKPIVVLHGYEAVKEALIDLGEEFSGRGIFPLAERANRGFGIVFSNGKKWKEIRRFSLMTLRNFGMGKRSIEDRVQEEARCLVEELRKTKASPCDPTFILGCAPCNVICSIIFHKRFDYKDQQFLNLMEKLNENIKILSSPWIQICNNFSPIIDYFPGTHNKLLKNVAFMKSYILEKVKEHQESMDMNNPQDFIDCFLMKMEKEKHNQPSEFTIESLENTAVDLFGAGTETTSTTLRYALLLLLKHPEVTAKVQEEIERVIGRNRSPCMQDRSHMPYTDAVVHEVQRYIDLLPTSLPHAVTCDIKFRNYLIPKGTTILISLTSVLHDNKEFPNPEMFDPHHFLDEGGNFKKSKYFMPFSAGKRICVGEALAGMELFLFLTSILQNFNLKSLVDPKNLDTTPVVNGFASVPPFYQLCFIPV

Chain of Voltage-gated inwardly rectifying potassium channel KCNH2 (Q12809 whole entry): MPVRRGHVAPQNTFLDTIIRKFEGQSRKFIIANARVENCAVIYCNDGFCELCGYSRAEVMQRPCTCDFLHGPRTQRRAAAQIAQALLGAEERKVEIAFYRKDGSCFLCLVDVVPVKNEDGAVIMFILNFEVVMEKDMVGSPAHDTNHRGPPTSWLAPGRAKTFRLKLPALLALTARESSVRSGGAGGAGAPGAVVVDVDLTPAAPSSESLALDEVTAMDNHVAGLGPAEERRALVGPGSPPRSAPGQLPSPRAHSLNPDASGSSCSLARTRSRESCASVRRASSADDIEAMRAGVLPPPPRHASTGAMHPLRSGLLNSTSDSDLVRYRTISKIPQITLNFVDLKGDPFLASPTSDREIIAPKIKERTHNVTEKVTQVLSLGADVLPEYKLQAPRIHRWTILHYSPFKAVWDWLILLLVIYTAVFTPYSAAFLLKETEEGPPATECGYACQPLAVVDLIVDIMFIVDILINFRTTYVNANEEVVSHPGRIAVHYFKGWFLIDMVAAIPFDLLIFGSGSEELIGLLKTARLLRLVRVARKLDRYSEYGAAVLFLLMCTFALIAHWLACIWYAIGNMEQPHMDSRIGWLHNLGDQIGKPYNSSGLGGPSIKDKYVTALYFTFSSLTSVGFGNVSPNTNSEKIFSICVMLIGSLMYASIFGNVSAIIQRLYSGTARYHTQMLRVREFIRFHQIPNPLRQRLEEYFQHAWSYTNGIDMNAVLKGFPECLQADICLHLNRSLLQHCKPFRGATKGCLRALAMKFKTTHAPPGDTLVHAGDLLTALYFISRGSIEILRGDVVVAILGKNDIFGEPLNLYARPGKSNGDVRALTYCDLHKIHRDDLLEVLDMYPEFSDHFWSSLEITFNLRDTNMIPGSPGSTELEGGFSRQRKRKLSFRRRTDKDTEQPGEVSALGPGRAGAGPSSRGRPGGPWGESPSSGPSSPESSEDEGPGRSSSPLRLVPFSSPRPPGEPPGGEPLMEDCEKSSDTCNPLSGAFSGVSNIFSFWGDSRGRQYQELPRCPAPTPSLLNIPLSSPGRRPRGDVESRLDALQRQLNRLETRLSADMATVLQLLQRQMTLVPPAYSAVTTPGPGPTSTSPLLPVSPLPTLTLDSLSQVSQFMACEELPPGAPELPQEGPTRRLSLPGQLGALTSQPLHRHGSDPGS
Chain of Vasopressin V1a receptor (P37288 whole entry): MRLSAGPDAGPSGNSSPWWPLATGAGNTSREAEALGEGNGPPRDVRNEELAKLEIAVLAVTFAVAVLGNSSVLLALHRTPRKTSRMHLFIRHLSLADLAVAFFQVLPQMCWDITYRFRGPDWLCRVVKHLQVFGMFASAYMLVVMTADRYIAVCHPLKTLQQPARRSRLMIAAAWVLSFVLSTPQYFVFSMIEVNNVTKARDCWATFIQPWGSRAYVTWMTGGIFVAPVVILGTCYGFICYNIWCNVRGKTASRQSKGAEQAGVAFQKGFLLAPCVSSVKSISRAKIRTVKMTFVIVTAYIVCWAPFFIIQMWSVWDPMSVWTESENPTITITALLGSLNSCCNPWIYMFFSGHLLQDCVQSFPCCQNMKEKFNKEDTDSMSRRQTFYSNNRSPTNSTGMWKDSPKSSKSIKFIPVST
Chain of Sigma non-opioid intracellular receptor 1 (Q99720 whole entry): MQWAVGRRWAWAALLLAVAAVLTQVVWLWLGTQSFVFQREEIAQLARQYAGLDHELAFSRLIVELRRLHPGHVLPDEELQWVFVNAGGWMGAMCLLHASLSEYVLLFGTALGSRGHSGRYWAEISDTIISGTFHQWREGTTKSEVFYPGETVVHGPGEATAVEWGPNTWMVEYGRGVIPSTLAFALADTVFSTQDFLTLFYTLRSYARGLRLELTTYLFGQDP

SMILES | IC50 [1] | Ki [1] | IC50 (Vasopressin V1a receptor) | IC50 ([2]; jurkat) | IC50 [3] | Ki [3] | IC50 (Progesterone receptor) | IC50 [4] | IC50 [5] | IC50 (Cytochrome P450 2C9) | Ki (Cytochrome P450 2C9) | IC50 (Progesterone receptor; read-out: IC50) | Ki (Progesterone receptor; read-out: Ki) | IC50 ([2]; read-out: IC50) | Ki ([2]; read-out: Ki)
COc1ccccc1C(=O)N1CCC(Cc2ccccc2)CC1 | Not Active | Not Active | Not Active | Not Active | Not Active | Not Active | Not Active | Not Active | Not Active | – | – | – | – | – | –
Cc1ccccc1C(=O)N1CCC(Cc2ccccc2)CC1 | Not Active | Not Active | Not Active | Not Active | Not Active | Not Active | Not Active | Not Active | Not Active | – | – | – | – | – | –
N=C(Nc1ccccc1)Nc1ccccc1 | – | – | Not Active | – | Not Active | Not Active | Not Active | Not Active | Not Active | Not Active | Not Active | – | – | – | –
CCCC(=O)Nc1ccc(OCC(O)CNC(C)C)c(C(C)=O)c1 (centres undefined) [ACEBUTOLOL] | Not Active | Not Active | Not Active | Not Active | Not Active | Not Active | Not Active | Not Active | Not Active | – | – | – | – | – | –
Cc1cc(=O)n(-c2ccccc2)n1C [ANTIPYRINE] | Not Active | Not Active | Not Active | Not Active | Not Active | Not Active | Not Active | Not Active | Not Active | – | – | – | – | – | –
O=C1CC2(CCCC2)CC(=O)N1CCCCN1CCN(c2ncccn2)CC1 [BUSPIRONE] | Not Active | Not Active | Not Active | – | Not Active | Not Active | Not Active | Not Active | Not Active | Not Active | Not Active | – | – | – | –
O=NN(CCCl)C(=O)NCCCl [CARMUSTINE] | Not Active | Not Active | Not Active | Not Active | Not Active | Not Active | Not Active | Not Active | Not Active | – | – | – | – | – | –
CC1=C(C(=O)O)N2C(=O)[C@@H](NC(=O)[C@H](N)c3ccccc3)[C@H]2SC1 [CEPHALEXIN ANHYDROUS] | – | – | Not Active | Not Active | Not Active | Not Active | Not Active | Not Active | Not Active | – | – | – | – | – | –
O=C(N[C@H](CO)[C@H](O)c1ccc([N+](=O)[O-])cc1)C(Cl)Cl [CHLORAMPHENICOL] | – | – | Not Active | Not Active | Not Active | Not Active | Not Active | Not Active | Not Active | – | – | – | – | – | –
C=C1CC[C@H](O)C/C1=C/C=C1\CCC[C@]2(C)[C@@H]([C@H](C)CCCC(C)C)CC[C@@H]12 [CHOLECALCIFEROL] | Not Active | Not Active | Not Active | Not Active | Not Active | Not Active | – | Not Active | Not Active | Not Active | Not Active | – | – | – | –
CCOC(=O)C(C)(C)Oc1ccc(Cl)cc1 [CLOFIBRATE] | Not Active | Not Active | Not Active | Not Active | Not Active | Not Active | Not Active | Not Active | Not Active | – | – | – | – | – | –
C[C@@H]1C[C@@H]([C@H](O)CC2CC(=O)NC(=O)C2)C(=O)[C@@H](C)C1 [CYCLOHEXIMIDE] | Not Active | Not Active | Not Active | Not Active | Not Active | Not Active | Not Active | Not Active | Not Active | – | – | – | – | – | –
C/C=C/C[C@@H](C)[C@@H](O)[C@H]1C(=O)N[C@@H](CC)C(=O)N(C)CC(=O)N(C)[C@@H](CC(C)C)C(=O)N[C@@H](C(C)C)C(=O)N(C)[C@@H](CC(C)C)C(=O)N[C@@H](C)C(=O)N[C@H](C)C(=O)N(C)[C@@H](CC(C)C)C(=O)N(C)[C@@H](CC(C)C)C(=O)N(C)[C@@H](C(C)C)C(=O)N1C [CYCLOSPORINE] | – | – | Not Active | Not Active | Not Active | Not Active | Not Active | Not Active | Not Active | – | – | – | – | – | –
CN(C)/N=N/c1[nH]cnc1C(N)=O [DACARBAZINE] | Not Active | Not Active | Not Active | Not Active | Not Active | Not Active | Not Active | Not Active | Not Active | – | – | – | – | – | –
C[C@]12CC[C@@H]3c4ccc(O)cc4CC[C@H]3[C@@H]1CC[C@@H]2O [ESTRADIOL] | – | – | Not Active | Not Active | Not Active | Not Active | – | Not Active | Not Active | Not Active | Not Active | 32.6 µM | 4.25 µM | – | –
CN(C)c1ccc(C(=C2C=CC(=[N+](C)C)C=C2)c2ccc(N(C)C)cc2)cc1.[Cl-] [GENTIAN VIOLET] | Not Active | Not Active | Not Active | Not Active | Not Active | Not Active | Not Active | Not Active | Not Active | – | – | – | – | – | –
NC(=O)NO [HYDROXYUREA] | Not Active | Not Active | Not Active | Not Active | Not Active | Not Active | Not Active | Not Active | Not Active | – | – | – | – | – | –
Oc1ccc(OCc2ccccc2)cc1 [MONOBENZONE] | Not Active | Not Active | Not Active | Not Active | Not Active | Not Active | Not Active | Not Active | Not Active | – | – | – | – | – | –
COc1ccc2cc([C@H](C)C(=O)O)ccc2c1 [NAPROXEN] | – | – | Not Active | Not Active | Not Active | Not Active | Not Active | Not Active | Not Active | – | – | – | – | – | –
COC(=O)C1=C(C)NC(C)=C(C(=O)OCC(C)C)C1c1ccccc1[N+](=O)[O-] (centres undefined) [NISOLDIPINE] | – | – | Not Active | Not Active | Not Active | Not Active | Not Active | Not Active | Not Active | – | – | – | – | – | –
CCOC(=O)C1=C(C)NC(C)=C(C(=O)OC)C1c1cccc([N+](=O)[O-])c1 (centres undefined) [NITRENDIPINE] | Not Active | Not Active | Not Active | Not Active | Not Active | Not Active | Not Active | Not Active | Not Active | – | – | – | – | – | –
CCn1cc(C(=O)O)c(=O)c2cc(F)c(N3CCN(C)CC3)cc21 [PEFLOXACIN] | – | – | Not Active | Not Active | Not Active | Not Active | Not Active | Not Active | Not Active | – | – | – | – | – | –
CCCCOc1ccc(OCCCN2CCOCC2)cc1 [PRAMOXINE] | Not Active | Not Active | Not Active | – | Not Active | Not Active | – | Not Active | Not Active | Not Active | Not Active | – | – | 0.121 µM | 0.051 µM
O=C(C1CCCCC1)N1CC(=O)N2CCc3ccccc3C2C1 (centres undefined) [PRAZIQUANTEL] | Not Active | Not Active | Not Active | – | Not Active | Not Active | Not Active | Not Active | Not Active | Not Active | Not Active | – | – | – | –

Source: ChEMBL document CHEMBL1909046, “DrugMatrix in vitro pharmacology data”
